Reference: patent US20110092517A1, “Use of PPAR Delta Ligands for the Treatment or Prevention of Inflammation or Energy Metabolism/Production Related Diseases” (Cerenis Therapeutics S.A. & Nippon Chemiphar Co., Ltd., priority 2009, published 2011)
“And” between values parts separate entries of the source, which are not always exact repeats. Identical values can stand only once. “Also recorded” adds a separate entry of the source. Like-named read-outs stand apart in the source and are kept apart here.

Experiments:
rat PPARγ = target: T1, rat PPARγ (Rattus norvegicus, UniProt O88275); experiment: GAL4-PPAR chimera transactivation assay in CV-1 cells at 10% or 0.1% serum (Example 4); type: cell-based; conditions: read-out: GAL4-chimera (rat) EC50 (μM) hPPARγ
T1 construct: expressed in transfected cells; host or cells: CV-1
T1 sequence (O88275 238-503 limits assumed): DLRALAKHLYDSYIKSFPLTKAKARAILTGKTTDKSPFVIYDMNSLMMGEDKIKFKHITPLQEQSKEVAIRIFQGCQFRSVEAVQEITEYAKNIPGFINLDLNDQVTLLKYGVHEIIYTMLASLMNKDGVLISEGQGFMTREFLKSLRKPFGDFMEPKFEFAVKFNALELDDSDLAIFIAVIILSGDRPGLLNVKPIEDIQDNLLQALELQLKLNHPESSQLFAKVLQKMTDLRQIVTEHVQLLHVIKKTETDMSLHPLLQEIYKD

TNF-α = TNF-α content in liver and epididymal white adipose tissue after 5 weeks of treatment in WD fed rats (ELISA); type: in vivo, rat; conditions: metformin 50, GW501516 10, compound I.1 10 mg/kg (alone or +metformin 50 mg/kg)
Procedure: At the end of the clamp procedure (9.5 hours fasting), perirenal, retroperitoneal, epididymal and inguinal fat pads and liver weights were recorded. Blood was collected from cardiac puncture and plasmas were stored at −80° C. for further assays if needed (depending on the radioactive state of samples). Liver triglyceride content was assessed (enzymatic-colorimetric method) as well as liver and adipose tissue TNF-α content (ELISA method).

[1] = Plasma biochemistry after 17 days of treatment in WD fed rats (glycemia, insulin, HOMA-IR, adiponectin, FFA, TG); type: in vivo, rat
[2] = Euglycemic-hyperinsulinemic 2 steps clamp with 3H-glucose after 5 weeks of treatment in WD fed rats; type: in vivo, rat
Procedure: After 4 weeks of treatment, a catheter was implanted into the femoral vein under isoflurane anaesthesia and a period of 5-6 days was respected for recovery. […] The morning of the clamp procedure, rats were treated and fasted for 6 hours prior to tracer, glucose and insulin infusions. The beginning of the clamp procedure was performed in the middle of the dark cycle.
The euglycemic hyperinsulinemic 2 steps insulin clamp was performed using 0.2 U/kg/h and 0.8 U/kg/h insulin infusion associated with 3H-glucose infusion. We then assessed:
During the clamp procedure, a bolus (30 μCi) of D-[3-3H]glucose was first injected followed by 4 μCi/min/kg infusion rate during all the experiment to ensure a detectable plasma D[3-3H]glucose enrichment. A bolus of insulin (100 mU) was first injected, and insulin was then infused at a rate of 0.2 U/kg/h for the first 2 hours and 0.8 U/kg/h from 120 minutes to 210 minutes.
Throughout the infusion, glycaemia was assessed with a blood glucose meter from the tip of the tail vein when needed. Euglycemia was maintained by periodically (every 10 minutes) adjusting a variable infusion of 30% glucose. Plasma glucose concentrations and D-[3-3H]glucose specific activity were determined during stable phase in 10 μl of blood sampled from the tip of the tail vein every 20 minutes from 60 to 120 minutes during the first step and from 150 to 210 minutes during the second step.
For glucose turnover measurements, D-[3-3H]glucose enrichments were determined from total blood after deproteinization by a Zn(OH)2 precipitate. Briefly, an aliquot of the supernatant was evaporated to dryness to determine the radioactivity corresponding to D-3-3H. In a second aliquot of the same supernatant, glucose concentration was assessed by the glucose oxidase method (Biomérieux, France).
Calculations for glucose turnover measurements were made from parameters obtained during the infusions in steady-state condition ([…]). Briefly, the D-[3-3H]glucose specific activity was calculated by dividing the D-[3-3H]glucose enrichment by the plasma glucose concentration. The whole body glucose turnover rate was calculated by dividing the rate of D[3-3H]glucose by the D-[3-3H]glucose plasma specific activity. For each rat, the mean values were calculated and averaged with values from rats of the same group. The whole body glycolysis rate was measured by assessing the amount of tritiated water accumulated in the blood during the 3H-glucose infusion and the whole body glycogen synthesis rate was calculated by the difference between the whole body glucose turnover and the whole body glycolysis rate.

rat PPARα = target: T2, rat PPARα (Rattus norvegicus, UniProt P37230); experiment: GAL4-PPAR chimera transactivation assay in CV-1 cells at 10% or 0.1% serum (Example 4); type: cell-based; conditions: read-out: GAL4-chimera (rat) EC50 (μM) hPPARα
T2 construct: expressed in transfected cells; host or cells: CV-1
T2 sequence (P37230 239-466 limits assumed): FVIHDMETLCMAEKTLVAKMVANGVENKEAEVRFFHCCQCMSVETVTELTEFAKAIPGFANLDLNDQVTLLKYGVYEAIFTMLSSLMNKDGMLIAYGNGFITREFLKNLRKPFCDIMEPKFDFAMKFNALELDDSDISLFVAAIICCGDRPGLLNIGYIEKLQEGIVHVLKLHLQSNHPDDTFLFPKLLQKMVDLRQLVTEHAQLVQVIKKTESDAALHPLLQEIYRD

rat PPARδ = target: T3, rat PPARδ (Rattus norvegicus, UniProt Q62879); experiment: as above; type: cell-based; conditions: read-out: GAL4-chimera (rat) EC50 (μM) hPPARδ
T3 construct: expressed in transfected cells; host or cells: CV-1
T3 sequence (Q62879 139-440 limits assumed): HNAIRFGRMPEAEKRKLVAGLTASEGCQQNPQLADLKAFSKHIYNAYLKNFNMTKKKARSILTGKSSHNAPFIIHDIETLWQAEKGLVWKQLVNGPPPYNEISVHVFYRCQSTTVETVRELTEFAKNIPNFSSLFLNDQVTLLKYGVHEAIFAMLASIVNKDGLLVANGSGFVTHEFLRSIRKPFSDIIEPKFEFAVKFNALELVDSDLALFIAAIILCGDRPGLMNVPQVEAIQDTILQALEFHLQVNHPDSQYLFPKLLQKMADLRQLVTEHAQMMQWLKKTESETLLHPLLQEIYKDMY
Procedure: Assays were performed in triplicate for GAL4-chimeras. Experiments were repeated at least three times.
The EC50 were calculated as previously described.
The transactivation activities of the compound I.1 and GW501516 are measured in rat and mouse transactivation assays at 10% and 0.1% serum (Tables 11 and 12).

EC50 (rat PPARγ; 0.1% serum): > 10 µM
EC50 (rat PPARγ; 10% serum): > 10 µM
EC50 (rat PPARα; 0.1% serum): > 10 µM
EC50 (rat PPARα; 10% serum): > 10 µM
EC50 (rat PPARδ; 0.1% serum): 0.118 ± 0.031 µM
EC50 (rat PPARδ; 10% serum): 0.692 ± 0.177 µM
Structure (SMILES): Cc1cc(C(=O)CCc2sc(-c3ccc(C(F)(F)F)cc3)nc2C(C)C)ccc1OCC(=O)O [compound I.1, 4-[3-[4-Isopropyl-2-[4-(trifluoromethyl)phenyl]-5-thiazolyl]propionyl]-2-methylphenoxyacetic acid]
Decrease of TNF-α levels in epididymal white adipose tissues (TNF-α): 51%
Decrease of HOMA-IR ([1]; 4 h fasted, pioglitazone 10, metformin 50, GW501516 10, compound I.1 10 mg/kg): ~25% and 28%
Plasma adiponectin levels ([1]; pioglitazone 10, metformin 50, GW501516 10, compound I.1 3 and 10 mg/kg): did not prevent a decrease
Insulin resistance / insulin sensitizing effect (overall) ([2]; WD fed rats, after 5 weeks, compound I.1 dose not specified (3 and 10 mg/kg groups), pioglitazone 10, metformin 50 mg/kg): improved insulin resistance in a lesser extent than pioglitazone and metformin, but was more effective than GW501516; also recorded: insulin sensitizing effect, less marked than metformin
Whole body glucose oxidation ([2]; WD fed rats, clamp after 5 weeks, metformin 50 mg/kg, compound I.1 dose not specified, alone or associated): tended to increase
Increase of GIR (glucose infusion rate) during the first step ([2]; clamp 0.2 U/kg/h insulin, after 5 weeks, compound I.1 3 mg/kg): 105%
Decrease of HGP (hepatic glucose production) ([2]; clamp 0.2 U/kg/h insulin, compound I.1 3 mg/kg): 22%
Increase of glycolysis ([2]; clamp 0.8 U/kg/h insulin, metformin 50, GW501516 10, compound I.1 10 mg/kg (alone or +metformin 50 mg/kg)): 42%
